Test results: patent US20250135012A1, “DENDRIMER CONJUGATES OF SMALL MOLECULE BIOLOGICS FOR INTRACELLULAR DELIVERY” (The Johns Hopkins University, priority 2021, published 2025)

Key:
[1] = tested on: IL-1β; assay: IL-1β mRNA in LPS stimulated BV2 cells (PCR); format: cell-based, murine
Method: (§1) HMEC and BV2 samples were then collected with TRIzol for polymerase chain reaction (PCR) analysis. In brief, samples were subjected to a freeze-thaw cycle with TRIzol followed by the addition of 200 μL of chloroform (Thermo Fisher Scientific). The samples were shaken and placed in ice for 15 min. To aid in the separation of aqueous and organic layers, samples were centrifuged for 15 min at 15,000 g. The aqueous solution was collected and isopropanol was added to each sample (500 μL; Thermo Fisher Scientific). Samples were centrifuged again for 15 min at 15,000 g then washed with 75% ethanol in DEPC-treated water.
(§2) RNA content was determined through Nanodrop and equivalent amount of RNA from each sample were converted to complementary DNA (Applied Biosystems, Foster City, CA). PCR analysis was performed on STEP ONE PLUS® real-time PCR system (Applied Biosystems) with Fast SYBR Green reagent. PCR primers for VEGF-A, GAPDH, and IL-1β were obtained from Bio-Rad Laboratories (Hercules, CA). Primers were purchased from Integrated DNA Technologies (Coralville, IA). Primers for TNFα were: […]

[2] = tested on: VEGF-A; assay: Choroid VEGF-A mRNA by PCR, CNV mouse model; format: in vivo; settings: day 14
Method: (§3) For PCR, choroids were immersed in TRIzol, homogenized with steel beads, and filtered through Corning COSTAR SPIN-X® centrifuge tube filters (Sigma-Aldrich) to remove tissue solids. The RNA was isolated following the previously described protocol and the RNA concentration was determined through Nanodrop. Equivalent amounts of RNA were converted to complementary DNA (cDNA) and analyzed with Fast SYBR Green reagent through the STEP ONE PCR® system.

[3] = tested on: TNFα; assay: Choroid TNFα mRNA by PCR, CNV mouse model; format: in vivo
Method: as §3

[4] = tested on: VEGF-A; assay: Choroid VEGF-A protein by ELISA, CNV mouse model; format: in vivo
Method: Eyes were dissected immediately after enucleation without fixation. The choroid was collected and stored at −80° C. prior to analysis. For ELISA analysis, choroids were immersed in T-PER protein extraction buffer (Thermo Fisher Scientific) and homogenized with 0.9-2.0 mm stainless steel beads on a Bullet Blender Storm tissue homogenizer (Next Advantage Inc., Averill Park, NY). The supernatant was centrifuged to collect the aqueous solution. The samples were stored in −80° C. and used without further processing for ELISA detection of VEGF-A levels.

[5] = tested on: choroidal neovascularization (CNV); assay: Laser-induced CNV mouse model, CNV area; format: in vivo, C57BL/6J mice
Method: Prior to laser induction of CNV, a cocktail of ketamine/xylazine/acepromazine (100 mg/kg of ketamine, 20 mg/kg of xylazine, and 3 mg/kg of acepromazine) was injected intraperitoneally to anesthetize the animals. Animals were then treated with a drop of topical 2.5% Phyenylephrine Hydrochloride ophthalmic solution followed by 0.5% Tetracaine hydrochloride ophthalmic solution for pupil dilation. A Micron III SLO (Phoenix Research Labs, Pleasanton, CA) was used to image the fundus and focus the attached laser system (Phoenix Research Labs). Four equidistantly placed laser burns in the Bruch's membrane were created with a laser power setting of 240 mW at a duration of 70 ms.
In brief, a 30G insulin syringe was used to create an injection opening in the sclera. A 10 μL Hamilton syringe was then used to administer the treatment directly into the vitreous cavity. After treatment, animals were given topical ocular antibiotic (gentamicin and prednisolone acetate ophthalmic ointment) to prevent infection. Animals were then sacrificed at set time points post treatment (7 and 14 days) for imaging and biochemical analysis.
(§4) At set time points, animals were sacrificed and the enucleated eyes fixed in 4% paraformaldehyde for 1 h. The choroid and retina are then dissected out. Tissues were blocked and permeabilized through 2 h incubation with a solution of 5% normal goat serum, 0.3% Triton X-100, and 1% bovine serum albumin at room temperature under constant agitation. To visualize macrophage, tissues were stained with anti-Iba1 antibody (1:100; FUJIFILM® Wako Chemicals, Osaka, Japan) followed by ALEXA FLUOR® 405-labeled goat anti-rabbit secondary antibody (1:200; Abcam, MA, USA). Blood vessels were stained with FITC-labeled isolectin (GS IB4) (1:100; Life Technologies, Eugene, OR, USA).
(§5) Flat-mounts were created by making four radial incisions on the tissue and mounting the relaxed tissues on coverslips. CNV formation was imaged with confocal 710 microscope (Carl Zeiss, Oberkochen, Germany) for biodistribution, and with an Axiovert phase contrast microscope for area calculation.

[6] = tested on: VEGF-A; assay: VEGF-A mRNA in HMECs (PCR); format: cell-based, human
Method: as §1, §2

[7] = tested on: CNV area (macrophages, endothelial cells); assay: In vivo distribution and colocalization, CNV mouse model
Method: For biodistribution studies, 1 μg of Cy5-D-miR126-Cy3 or miR-126-Cy3 on a nucleic acid basis (at concentration of 1 μg/μL) were administered to the animals in accordance to the above steps. Tissues were extracted at set time points (1, 3, 5, 7, 14 days post-treatment).
as §4, §5
To assess uptake and distribution, Cy3 labeled miR-126 and dually labeled Cy5-D-miR126-Cy3 were injected into laser CNV mouse models and choroids were collected at 1, 3, 5, 7, 14 days post-injection. Iba1 staining was used to visualize the intracellular environment of macrophage, and isolectin GS-IB4 was used to stain for both blood vessels and macrophages.

[8] = tested on: HMECs; assay: HMEC Matrigel tube formation assay; format: cell-based, human; settings: 24 h pretreatment, imaged after 7 h on Matrigel
Method: HMECs were seeded onto 12-well plates at a density of 1×10^5 cells/mL and allowed to grow to confluency. […] After 24 h of treatment, cells were collected by detaching them with trypsin, collecting the resulting cell suspension, and centrifuging at 300 g for 5 min. Tube formation assay was performed according to protocol provided by Lonza.
In brief, on the day of the assay, 96-well plates were coated with 75 μL of phenol-free […]® and left to polymerize at 37° C. for 20 min. The cell pellets were re-suspended with 300 μL of media and 75 μL of the solution (400,000 cells/mL) were seeded onto each […]®-coated wells.

[9] = tested on: TNFα; assay: TNFα mRNA in LPS stimulated BV2 cells (PCR); format: cell-based, murine; settings: BV2, LPS 100 ng/mL, 24 h, 1-100 nM
Method: as §1, §2

[10] = 24 h post-injection (earliest time point)

miR-126: sense 5′-UCGUACCGUGAGUAAUAAUGCG-3′ (SEQ ID NO: 4); antisense 5′-CGCAUUAUUACUCACGGUACGA-[Thiol C6 S—S]-3′ (SEQ ID NO: 5) (3' thiol C6 S-S on antisense; misc_feature 22 3' end linked to Thiol-Modifier C6 S-S)
concentration with the higher/high IL-1β knockdown effect [1]: 10 nM | dose response of IL-1β knockdown ([1]; 1-100 nM): inverse dose response | VEGF-A mRNA levels [2]: still reduced | TNFα mRNA ([3]; 7 days, not statistically significant): elevated | TNFα mRNA ([3]; 14 days): suppressed TNFα | VEGF-A protein vs untreated ([4]; day 7): significant decrease | VEGF levels, treated vs untreated animals ([4]; day 14): no differences | CNV area ([5]; day 7, one intravitreal dose on day of CNV induction): ~8,000 μm^2 | CNV area decrease (significance) ([5]; day 14): insignificant decrease | reduction of CNV area compared to the control ([5]; day 14): ~10% | CNV area ([5]; day 14, one intravitreal dose): ~8,000 μm^2 | doses repressing VEGF-A at the same level as lower doses of D-miR126 [6]: 10 to 100 nM | knockdown of VEGF-A production ([6]; 24 h, full-serum): ~20% | fraction of Cy3 (miR-126) signal colocalized with Iba1 (macrophages) [7, 10]: around 2% | fraction of signal in combined macrophage/endothelial population (isolectin GS-IB4) [7, 10]: around 3% | time in the CNV target area ([7]; intravitreal, confocal microscopy): up to 7 days | fraction of signal colocalized within macrophages ([7]; peak at 5 days): ~10% | fraction of signal within combined macrophage/endothelial population ([7]; peak at 5 days): ~15% | network formation [8]: disruption of network formation | knockdown of TNFα [9]: ~50%
